Laboratory results as given in patent US20210330611A1, “THERAPY FOR NEUROLOGICAL DISEASES/DISORDERS” (priority 2020, published 2021).
Several values for one entry are separate records, joined by “and”; a condition that tells them apart may be missing. Equal entries are not always repeated. Structures can show the parent of a compound that is named as a salt. Where two headings read alike, the source gives them in different places.

What was measured:
[1] = tested on: fibrin- and LPS-induced microglia activation; assay: cells; format: cell-based, rat; details: for inhibition at 10 µM: Rattus norvegicus
[2] = tested on: primary rat microglia; assay: Cell toxicity (dead cells, size <150 μm2) in LPS assay; details: for LPS % cell toxicity: primary microglia HTS, LPS stimulation, decreased size (<150 μm^2) as marker of toxicity; for IC50: read-out: Cell Toxicity IC50 (uM) [LPS assay], LPS assay
[3] = tested on: LPS-induced microglia activation; assay: Image-based assay of LPS-induced microglia activation (HTS and dose response); format: cell-based, rat; details: Rattus norvegicus, Microglia; for inhibition at 10 µM: primary microglia HTS, LPS stimulation, increased cell size (>800 μm^2) as marker of activation, read-out: LPS % inhibition
[4] = in vitro; details: rat
[5] = in vitro; details: rat, Cell Toxicity IC50 (uM) [cFib assay]
[6] = tested on: fibrin-induced microglia activation; assay: Image-based assay of fibrin-induced microglia activation (HTS and dose response); format: cell-based, rat; details: for IC50 / inhibition at 10 µM: Rattus norvegicus, Microglia; for inhibition at 10 µM: primary microglia HTS, fibrin stimulation, increased cell size (>800 μm^2) as marker of activation, read-out: Fibrin % inhibition
[7] = tested on: primary rat microglia; assay: Cell toxicity (dead cells, size <150 μm2) in coated fibrin (cFib) assay; details: primary microglia HTS, fibrin stimulation; decreased size (<150 μm^2) as marker of toxicity;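 for Fibrin % cell toxicity: share of dead cells sized under 150 µm2 at 10 µM in fibrin-stimulated microglia HTS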
[8] = HTS of 1907 compounds, quadrant by fibrin and LPS inhibition
[9] = Microglia, HTS hit classification, read-out: Hit
[10] = hit classification in microglia HTS, read-out: Cherry-picked Hit (Suppl. Table 7)
[11] = quadrant by fibrin and LPS inhibition in HTS of 1907 compounds
[12] = 48 h, Table 1, dose response 0.001-20 μM, triplicates, primary rat microglia, 48 h, read-out: LPS IC50
[13] = LPS-induced microglia activation, dose response, read-out: LPS IC50 (uM) (Suppl. Table 7)
[14] = dose response, LPS-induced microglia activation, read-out: LPS IC50
[15] = 48 h, Table 1, dose response 0.001-20 μM, triplicates, primary rat microglia, 48 h, read-out: Fibrin IC50
[16] = dose response, fibrin-induced microglia activation, read-out: Fibrin IC50
[17] = fibrin-induced microglia activation, dose response, read-out: Fibrin IC50 (uM) (Suppl. Table 7)
[18] = Microglia, Table 3, read-out: Cherry-picked Hit (Suppl. Table 7)
[19] = Table 3, read-out: LPS IC50 (uM) (Suppl. Table 7)
[20] = Table 3, read-out: Fibrin IC50 (uM) (Suppl. Table 7)

SMILES	Quadrant (FIG. 5b) [1, 8]	inhibition at 10 µM [1, 9] [%]	inhibition at 10 µM [1, 10] [%]	Quadrant (FIG. 5b) ([1]; Table 1, screen at 10 μM)	Quadrant (FIG. 5b) [1, 11]	LPS % cell toxicity [2]	IC50 [3, 12] [µM]	inhibition at 10 µM ([3]; 48 h) [%]	IC50 [3, 13] [µM]	IC50 [3, 14] [µM]	IC50 [4] [µM]	IC50 ([5]; cFib assay) [µM]	IC50 [6, 15] [µM]	IC50 [6, 16] [µM]	IC50 [6, 17] [µM]	inhibition at 10 µM [6] [%]	Fibrin % cell toxicity [7]	inhibition at 10 µM [1, 18] [%]	Quadrant (FIG. 5b) ([1]; Table 3, screen at 10 μM)	IC50 [2] [µM]	other results
Cc1cccc(C)c1NC(=O)c1ccccc1C(=O)O [Ftaxilide, reference compound]	Q3	> 50	> 50	Q3	Q3	1%	> 20	42	> 20	> 20	> 20	> 20	> 20	> 20	> 20	78	2%				
COc1ccc(-n2nc(CCC(=O)N(C)O)cc2-c2ccc(Cl)cc2)cc1 [Tepoxalin, reference compound]	Q2	> 50		Q2	Q2	2%	18	66	18	18	> 20	> 20	3	3	3	76	1%	> 50	Q2	> 20	IC50 [3, 19]: 18 µM; IC50 ([5]; Table 3): > 20 µM; Fibrin Selectivity [6]: 6; Fibrin Selectivity (LOG10) [6]: 0.75; IC50 [6, 20]: 3 µM
Cc1cc(-n2c(=O)[nH]c(=O)n(C)c2=O)ccc1Oc1ccc(SC(F)(F)F)cc1 [Toltrazuril, reference compound]	Q2	> 50	> 50	Q2	Q2	2%	> 20	90	> 20	> 20	> 20	> 20	> 20	> 20	> 20	104	3%				
C[C@]12C=CC(=O)C=C1CC[C@@H]1[C@@H]2C(=O)C[C@@]2(C)[C@H]1CC[C@]2(O)C(=O)CO [Prednisone, reference compound]	Q3	> 50		Q3	Q3	1% and 0%	> 20	45	> 20	> 20	> 20	> 20				66	1% and 2%	> 50	Q3	> 20	IC50 [3, 19]: > 20 µM; IC50 ([5]; Table 3): > 20 µM; Fibrin Selectivity [6]: 6
Nc1ccc(S(=O)(=O)Nc2cnc3ccccc3n2)cc1 [Sulfaquinoxaline sodium, reference compound]	Q2	> 50	> 50	Q2	Q2	3%	> 20	104	> 20	> 20	> 20	> 20	> 20	> 20	> 20	106	3%				
COC(=O)Nc1nc2ccc(Sc3ccccc3)cc2[nH]1 [Fenbendazole, reference compound]	Q3	> 50	> 50	Q3	Q3	1%	4	10	4	4	> 20	> 20	3	3	3	75	1%				
CC(=O)OCC(=O)[C@@]1(O)CC[C@H]2[C@@H]3CCC4=CC(=O)CC[C@]4(C)[C@@]3(F)[C@@H](O)C[C@@]21C [Fludrocortisone acetate, reference compound]	Q2	> 50		Q2	Q2	4%	0.4	101	0.4	0.4	> 20	> 20	< 0.001	< 0.001	< 0.001	104	2%	> 50	Q2	> 20	Quadrant (FIG. 5b) ([1]; Table 2, screen at 10 μM): Q2; Activity ([1]; Table 7, fib = fibrin, LPS, tox = toxicity): fib/LPS; Quadrant (FIG. 5b) ([1]; microglia HTS, Table 6): Q2; IC50 ([2]; Table 6): > 20 µM; IC50 [3, 19]: 0.4 µM; IC50 ([3]; Table 6, read-out: LPS IC50 (uM) (Suppl. Table 7)): 0.4 µM; IC50 ([3]; Table 7, read-out: LPS_IC50): 0.002 µM; IC50 ([5]; Table 3): > 20 µM; IC50 ([5]; cFib assay, Table 6): > 20 µM; Fibrin Selectivity [6]: 362; Fibrin Selectivity (LOG10) [6]: 2.56; IC50 [6, 20]: < 0.001 µM; IC50 ([6]; Table 6, read-out: Fibrin IC50 (uM) (Suppl. Table 7)): < 0.001 µM; IC50 ([6]; Table 7, read-out: fib_IC50): 0.002 µM
Clc1ccc(C(OCCN2CCCCC2)c2ccccc2)cc1 (stereo not shown) [Cloperastine hydrochloride, reference compound]	Q3	> 50	> 50	Q3	Q3	0%	9	44	9	9	> 20	> 20	7	7	7	64	2%				
Cc1ccc(S(=O)(=O)NC(=O)NN2CCCCCC2)cc1 [Tolazamide, reference compound]	Q3	> 50		Q3	Q3	0%	> 20	42	> 20	> 20	> 20	> 20	12	12	12	88	1%	> 50	Q3	> 20	IC50 [3, 19]: > 20 µM; IC50 ([5]; Table 3): > 20 µM; Fibrin Selectivity [6]: 2; Fibrin Selectivity (LOG10) [6]: 0.23; IC50 [6, 20]: 12 µM
O=C(OOC(=O)c1ccccc1)c1ccccc1 [Benzoyl peroxide, reference compound]	Q2	> 50	> 50	Q2	Q2	2%	> 20	82	> 20	> 20	> 20	> 20	20	20	20	75	1%				
Cc1cc(NC(=O)C2=C(O)c3ccccc3S(=O)(=O)N2C)no1 [Isoxicam, reference compound]	Q3	> 50		Q3	Q3	1%	> 20	30	> 20	> 20	> 20	> 20	7	7	7	67	1%	> 50	Q3	> 20	IC50 [3, 19]: > 20 µM; IC50 ([5]; Table 3): > 20 µM; Fibrin Selectivity [6]: 3; Fibrin Selectivity (LOG10) [6]: 0.43; IC50 [6, 20]: 7 µM
